Here are results for two compounds from ChEMBL document CHEMBL4825761, “Utilization of Metabolite Identification and Structural Data to Guide Design of Low-Dose IDO1 Inhibitors” (ACS Med Chem Lett, 2021).

Data set [1] in a line: Oral bioavailability in dog. The format is ADME, organism-based, Canis lupus familiaris. As to conditions: in vivo.
The nature of data set [2]: Volume of distribution in Wistar Han rat by LC-MS/MS analysis. The format is ADME. The note with it: in vivo.
Data set [3] can be described thus: Unbound clearance in Wistar Han rat by LC-MS/MS analysis. Format: ADME. The note with it: in vivo.
Data set [4] can be described thus: Clearance in Wistar Han rat by LC-MS/MS analysis. The format is ADME. The note with it: in vivo.
Data set [5] in a line: Volume of distribution in dog. The note with it: in vivo. The format is ADME, Canis lupus familiaris.
Data set [6] can be described thus: Half life in Wistar Han rat by LC-MS/MS analysis. As to conditions: in vivo. The format is ADME.
Data set [7] addresses T1, Indoleamine 2,3-dioxygenase 1 (Homo sapiens, UniProt P14902). In words: Inhibition of IDO1 in IFNgamma/LPS stimulated human whole blood assessed as reduction in kynurenine production using tryptophan as substrate preincubated with compound for 15 mins followed by incubation with IFNgamma/LPS for overnight by LC/MS/MS analysis. Format: tissue-based.
Data set [8] can be described thus: Unbound clearance in dog. The format is ADME, Canis lupus familiaris. As to conditions: in vivo.
Data set [9] is described as follows: Half life in dog. Format: ADME, Canis lupus familiaris. As to conditions: in vivo.
Data set [10] is described as follows: Lipophilicity, logD of the compound by HPLC analysis. Format: physicochemical.
A short description of data set [11]: Clearance in dog. The format is ADME, Canis lupus familiaris. The note with it: in vivo.
Data set [12] can be described thus: Oral bioavailability in Wistar Han rat by LC-MS/MS analysis. The format is ADME, organism-based. The note with it: in vivo.
The target of data set [13] is T1, Indoleamine 2,3-dioxygenase 1. In words: Inhibition of IDO1 in human HeLa cells. The format is cell-based.
Target sequence in this assay (P14902 whole entry): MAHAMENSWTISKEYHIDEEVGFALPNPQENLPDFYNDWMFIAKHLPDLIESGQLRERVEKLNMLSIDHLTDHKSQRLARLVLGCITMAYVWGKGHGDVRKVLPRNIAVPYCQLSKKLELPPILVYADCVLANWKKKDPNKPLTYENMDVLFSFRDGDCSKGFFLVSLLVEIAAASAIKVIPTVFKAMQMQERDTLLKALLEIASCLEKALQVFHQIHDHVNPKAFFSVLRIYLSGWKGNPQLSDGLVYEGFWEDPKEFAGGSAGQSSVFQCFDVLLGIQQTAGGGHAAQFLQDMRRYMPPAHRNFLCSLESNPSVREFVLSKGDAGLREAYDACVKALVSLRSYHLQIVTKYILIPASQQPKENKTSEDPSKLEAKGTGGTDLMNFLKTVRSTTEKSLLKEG
Data set [14] in a line: Plasma concentration in CD1 mouse xenografted with mouse CT26 cells overexpressing human IDO1 at 3 mg/kg, po administered as single dose measured after 4 hrs by mass spectrometry. Format: ADME, organism-based. In general terms: A xenograft is tissue or cells of one species grown in another, often human tumour cells in immunodeficient mice.
A short description of data set [15]: Plasma concentration in CD1 mouse xenografted with mouse CT26 cells overexpressing human IDO1 at 3 mg/kg, po administered as single dose measured after 2 hrs by mass spectrometry. Format: ADME, organism-based.
Data set [16] in a line: Plasma concentration in CD1 mouse xenografted with mouse CT26 cells overexpressing human IDO1 at 3 mg/kg, po administered as single dose measured after 16 hrs by mass spectrometry. The format is ADME, organism-based. The note with it: in vivo, BLD = below limit of detection.
Data set [17] is described as follows: Plasma concentration in CD1 mouse xenografted with mouse CT26 cells overexpressing human IDO1 at 3 mg/kg, po administered as single dose measured after 8 hrs by mass spectrometry. The format is ADME, organism-based.

One may read the bioavailability as dose-corrected exposure relative to a reference, in per cent. Higher therefore signals much systemic uptake. By Vd is commonly meant the apparent volume that relates the amount in the body to the concentration in plasma or blood. Lower therefore signals little distribution into tissue. By clearance is commonly meant the rate of elimination divided by the concentration. Broadly, the half-life is the time needed for the level to fall by half in the phase considered. Broadly, the IC50 is the concentration that gives 50% inhibition. Usually logD stands for lipophilicity at a set pH, counting ionised and neutral species.

Each structure is given as a SMILES string.

For the compound `Cc1nccc(N2C[C@@H]3C[C@@H]3c3nc(C4(NC(=O)c5ccc(F)cc5)CC4)ccc32)n1`, the bioavailability in data set [1] and in data set [12] was 46% in each case. The Vd in data set [2] is 1.4 L/kg; in [5], 1.3 L/kg. In addition, the figures for the CL free in data set [3] and in data set [8] were 307 mL/min/kg and 26 mL/min/kg, respectively. Also, the clearance in [4] turned out to be 16.7 mL/min/kg; in [11] it was 12.3 mL/min/kg. In addition, the half-life in data set [6] is 1.9 h; in [9] it was 9 h. Further, the values for the IC50 in data set [7] and in data set [13] were 16 nM and 2 nM, respectively. Further, in data set [7], the fIC50 came out at 0.8 nM. In data set [10], this compound came in with a logD of 2.4.
Compound `Cc1nccc(N2CCCc3nc(C4(NC(=O)c5ccc(F)cc5)CC4)ccc32)n1` yielded a concentration at 4 h in data set [14] of 90 nM. The compound further showed a concentration at 2 h in [15] of 210 nM. For the same compound, the Cp entry in data set [16] is “Bld”. In data set [17], this compound returned a concentration at 8 h of 30 nM.
